# Test results reported in the METLIN SMRT retention time set (Domingo-Almenara et al. 2019).
# Experiment: gradient 5% acetonitrile 3 min, to 50% in 2 min, to 85% in 15 min, held 3 min, 100 µL/min
# Conditions: column: Zorbax Extend-C18 2.1 x 50 mm; eluents: water / acetonitrile, 0.1% formic acid
# How it was run: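 Values are retention times taken from adduct peaks that software picked and an analyst inspected. The pure standards were run as mixtures of ~100 molecules on HPLC linked to a quadrupole time-of-flight mass spectrometer, in positive and negative ionization mode. A Zorbax Extend-C18 column (2.1 × 50 mm, 1.8 μm) was used at 100 μL/min with water and acetonitrile, each including 0.1% formic acid.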
row,Structure (SMILES),RP-LC retention time [s]
1,O=c1n(Cc2ccc(Cl)cc2)nc2ccc(S(=O)(=O)N3CCCC3)cn12,906
2,CC(=O)Nc1ccc(SCCCC(=O)Nc2ncc([N+](=O)[O-])s2)nn1,670
3,Cc1cc2nn(CC(=O)NC(C)C)c(=O)n2c(-c2ccc(C(F)(F)F)cc2)n1,576
4,CNC(=O)c1nn(-c2ccc(F)c(F)c2)c(OC)cc1=O,651
5,Cc1nc(-c2ccccc2)sc1C(=O)NCCNC(=O)c1ccc(NC(=O)C2CC2)cc1,705
6,Cc1c(Cl)ccc2c(=O)c3c([nH]c12)CCN(CC(=O)Nc1ccc(Cl)c(F)c1)C3,646
7,COc1ccc(NC(=O)CCc2cccc3[nH]ccc23)c(C)c1,805
8,COc1ccc(-c2c(C(=O)NC(C)C)nc3ccccn23)cc1,676
9,Cc1cc(C)c(CNC(=O)C2CCN(c3cncnc3N3CCOCC3)CC2)c(C)c1,681
10,Cc1sc2cc(C(=O)NCCN(C)C)[nH]c2c1CN1CCCCC1,536
11,CC(C)c1ccc(-n2nc(N3CCN(C(=O)Cn4ccnc4)CC3)ccc2=O)cc1,731
12,CCCNC(=O)N1CCCN(C2=NS(=O)(=O)C(c3ccc(C)cc3)=C2C)CC1,776
13,O=C(c1cc(Cl)ccc1Cl)N1CCN(c2cc(-c3ccccc3)[nH]n2)CC1,882
14,CN(CC1CCOCC1)S(=O)(=O)Cc1cccc(Cl)c1,835
15,CCOc1ccc(NC(=O)Cn2cccc2-c2nnc(C3CCC3)o2)cc1,912
16,CC(C(=O)N1CCN(c2ccccn2)CC1)n1nc(-c2ccccc2)c2cc(Cl)ccc21 (stereo not given),835
17,O=C(c1nnc(-c2ccc(S(=O)(=O)N3CCOCC3)cc2)o1)N1CCN(c2ccccc2)CC1,905
18,Cn1cc(C(=O)N2CCOCC2)c2cccnc21,601
19,CCc1cc(C(=O)Nc2ccc(OC)cc2C)nc2ccnn12,970
20,COc1ccc(-c2cc(NCCc3ccc(OC)c(OC)c3)ncn2)cc1,563
21,CCC(C)C(NC(=O)c1ccc(F)c(F)c1)C(=O)Nc1nc2ccccc2[nH]1 (stereo not given),774
22,O=S(=O)(c1cc(-c2nnc(-c3ccc(F)cc3)o2)ccc1Cl)N1CCCCC1,1190
23,O=C(c1cn(-c2cc(N3CCSCC3)ncn2)cn1)N1CCc2ccccc2C1,886

row,Structure (SMILES),RP-LC retention time [s]
1,CCCC(=O)NCCc1c(I)[nH]c2ccc(OC)cc12,849
2,O=C(NCC1CCCO1)N1CCCn2nc(-c3cccs3)cc2C1 (stereo not given),663
3,CCCn1c(C)cnc1C1CN(S(=O)(=O)c2cccc(Cl)c2)C1,669
4,Cc1ccc(-c2noc(Cn3c(=O)n(C(C)C)c(=O)c4ccccc43)n2)cc1C,1220
5,COc1cc(NC(=O)c2cnc(-c3ccccc3)nc2-c2ccncc2)cc(OC)c1,879
6,COCCc1nnc(NC(=O)C2c3ccccc3Oc3ccccc32)o1,718
7,O=C(CCSc1nnnn1-c1ccccc1)Nc1ccc2c(c1)OCO2,794
8,Cc1cc(N2CCCC2)n2nc(CN3CCN(c4ccccc4C)CC3)nc2n1,1210
9,O=C(Cc1ccccc1Cl)NCCCn1cccc1,773
10,CCOc1ccc(CCNC(=O)c2sc(-c3cccn3CC)nc2C)cc1OCC,1140
11,COc1ccc(NC(=O)C2c3cc(OC)c(OC)cc3C(=O)N(C)C2c2cccs2)cc1OC (stereo not given),744
12,CCn1cc(-c2nc(C(=O)Nc3ccc(F)cc3Cl)cs2)c2cccnc21,1350
13,O=C(c1cccc(Cl)c1)N1CCC(n2c(-c3ccco3)nc3cccnc32)C1 (stereo not given),776
14,Cc1nn(C(C)C(=O)NCCN2CCOCC2)c(=O)c2nn(-c3ccccc3)c(C)c12 (stereo not given),615
15,Cc1cccc(C2CCCN2C(=O)c2nc3nc(C)cc(C(F)F)n3n2)c1 (stereo not given),841
16,COc1cccc(-c2nc(Cc3nc(-c4ccccc4)oc3C)no2)c1,1100
17,Fc1ccccc1-c1ccc(CNCc2cccs2)o1,706
18,CCCCn1cnc2c(-c3ccccc3)cn(CC(=O)N3CCCC3)c2c1=O,836
19,Cc1ccc(-c2noc(C3CCCN3C(=O)c3ccccc3F)n2)cc1 (stereo not given),1030
20,CCCNC(=O)C1CCCN(c2nc3ncn(CC(=O)Nc4ccc5c(c4)CCC5)c(=O)c3s2)C1 (stereo not given),762
21,CCC(C)NC(=O)C1CCN(c2cnn(Cc3ccccc3)c(=O)c2)CC1 (stereo not given),721
22,CCN1CCn2cc(S(=O)(=O)N3CCN(c4ccccc4F)CC3)cc2C1=O,826
